# From patent US12421240B2, “Hydropyrazino[1,2-d][1,4]diazepine compounds for the treatment of autoimmune disease” (Hoffmann-La Roche Inc., priority 2019, dated 2025)
# Target: T1, human TLR9 (Homo sapiens, UniProt Q9NR96)
# T1 sequence (Q9NR96 26-1032): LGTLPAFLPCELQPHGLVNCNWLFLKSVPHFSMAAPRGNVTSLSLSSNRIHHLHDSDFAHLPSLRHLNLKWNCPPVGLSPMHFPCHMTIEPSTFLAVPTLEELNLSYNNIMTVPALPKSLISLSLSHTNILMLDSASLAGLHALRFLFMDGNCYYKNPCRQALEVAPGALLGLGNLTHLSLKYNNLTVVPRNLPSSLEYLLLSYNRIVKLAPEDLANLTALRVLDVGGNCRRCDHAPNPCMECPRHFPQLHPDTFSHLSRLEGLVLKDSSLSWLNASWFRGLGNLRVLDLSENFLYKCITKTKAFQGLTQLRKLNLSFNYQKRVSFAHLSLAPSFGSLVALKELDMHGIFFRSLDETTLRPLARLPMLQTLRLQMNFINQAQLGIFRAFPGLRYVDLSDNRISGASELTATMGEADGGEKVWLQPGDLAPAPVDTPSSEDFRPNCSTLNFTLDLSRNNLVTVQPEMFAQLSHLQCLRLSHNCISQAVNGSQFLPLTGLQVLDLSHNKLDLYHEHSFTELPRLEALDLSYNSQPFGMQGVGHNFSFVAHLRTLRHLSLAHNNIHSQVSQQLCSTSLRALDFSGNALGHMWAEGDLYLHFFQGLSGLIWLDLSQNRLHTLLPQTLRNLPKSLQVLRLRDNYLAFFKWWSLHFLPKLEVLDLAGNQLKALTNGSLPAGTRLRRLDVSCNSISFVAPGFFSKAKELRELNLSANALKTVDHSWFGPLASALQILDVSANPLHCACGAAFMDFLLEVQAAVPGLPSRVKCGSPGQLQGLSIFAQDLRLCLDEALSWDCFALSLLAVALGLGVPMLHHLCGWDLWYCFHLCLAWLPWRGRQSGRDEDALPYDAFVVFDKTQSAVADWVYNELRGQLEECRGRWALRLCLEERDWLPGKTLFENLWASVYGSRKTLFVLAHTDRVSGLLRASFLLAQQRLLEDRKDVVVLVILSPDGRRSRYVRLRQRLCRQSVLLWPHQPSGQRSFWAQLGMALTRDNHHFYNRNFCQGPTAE
# Assay: HEK293-Blue-hTLR-9 cells assay (SEAP reporter, ODN2006 stimulation)
# Assay type: cell-based
# Details: HEK293-Blue-hTLR9 cells, ODN2006 ligand, 20 hrs; read-out: HEK/hTLR9 IC50
# Method: The following tests were carried out in order to determine the activity of the compounds of formula (I), (Ia) or (Ib) in HEK293-Blue-hTLR-7/8/9 cells assay.
# HEK293-Blue-hTLR-9 Cells Assay:
# A stable HEK293-Blue-hTLR-9 cell line was purchased from InvivoGen (Cat. #: hkb-htlr9, San Diego, California, USA). These cells were originally designed for studying the stimulation of human TLR9 by monitoring the activation of NF-κB. A SEAP (secreted embryonic alkaline phosphatase) reporter gene was placed under the control of the IFN-β minimal promoter fused to five NF-κB and AP-1-binding sites. The SEAP was induced by activating NF-κB and AP-1 via stimulating HEK-Blue hTLR9 cells with TLR9 ligands. Therefore the reporter expression was declined by TLR9 antagonist under the stimulation of a ligand, such as ODN2006 (Cat. #: tlrl-2006-1, Invivogen, San Diego, California, USA), for incubation of 20 hrs. The cell culture supernatant SEAP reporter activity was determined using QUANTI-Blue™ kit (Cat. #: rep-qb1, Invivogen, San Diego, California, USA) at a wavelength of 640 nm, a detection medium that turns purple or blue in the presence of alkaline phosphatase.
# HEK293-Blue-hTLR9 cells were incubated at a density of 250,000˜450,000 cells/mL in a volume of 170 μL in a 96-well plate in Dulbecco's Modified Eagle's medium (DMEM) containing 4.5 g/L glucose, 50 U/mL penicillin, […], 2 mM L-glutamine, 10% (v/v) heat-inactivated fetal bovine serum with addition of 20 μL test compound in a serial dilution in the presence of final DMSO at 1% and 10 μL of 20 uM ODN2006 in above DMEM, perform incubation under 37° C. in a CO2 incubator for 20 hrs. Then 20 μL of the supernatant from each well was incubated with 180 μL Quanti-blue substrate solution at 37° C. for 2 h and the absorbance was read at 620-655 nm using a spectrophotometer. The signaling pathway that TLR9 activation leads to downstream NF-κB activation has been widely accepted, and therefore similar reporter assay was modified for evaluating TLR9 antagonist.
row,IC50 [nM],Compound
1,59.3,"C[C@@H]1CN(c2ccc(C#N)c3ncccc23)C[C@@H]2CCN(c3cnc(N4CCNCC4)nc3)CCN21 [Example 2, 5-[(4R,10aS)-4-methyl-8-(2-piperazin-1-ylpyrimidin-5-yl)-1,3,4,6,7,9,10,10a-octahydropyrazino[1,2-d][1,4]diazepin-2-yl]quinoline-8-carbonitrile]"
2,45.8,"C[C@@H]1CN(c2ccc(C#N)c3ncccc23)C[C@@H]2CCN(Cc3ccc(N4CCNCC4)cn3)CCN21 [Example 19, 5-[(4R,10aS)-4-methyl-8-[(5-piperazin-1-yl-2-pyridyl)methyl]-1,3,4,6,7,9,10,10a-octahydropyrazino[1,2-d][1,4]diazepin-2-yl]quinoline-8-carbonitrile]"
3,35.4,"C[C@@H]1CN(c2ccc(C#N)c3ncccc23)C[C@@H]2CCN(Cc3cncc(N4CCNCC4)c3)CCN21 [Example 16, 5-[(4R,10aS)-4-methyl-8-[(5-piperazin-1-yl-3-pyridyl)methyl]-1,3,4,6,7,9,10,10a-octahydropyrazino[1,2-d][1,4]diazepin-2-yl]quinoline-8-carbonitrile]"
4,207,"C[C@@H]1CN(c2ccc(C#N)c3ncccc23)C[C@@H]2CCN(c3ccc(N4CCNCC4)nc3)CCN21 [Example 1, 5-[(4R,10aS)-4-methyl-8-(6-piperazin-1-yl-3-pyridyl)-1,3,4,6,7,9,10,10a-octahydropyrazino [1,2-d][1,4]diazepin-2-yl]quinoline-8-carbonitrile]"
5,< 31.8,"C[C@@H]1CN(c2ccc(C#N)c3ncccc23)C[C@@H]2CCN(Cc3cccc(N4CCNCC4)n3)CCN21 [Example 18, 5-[(4R,10aS)-4-methyl-8-[(6-piperazin-1-yl-2-pyridyl)methyl]-1,3,4,6,7,9,10,10a-octahydropyrazino[1,2-d][1,4]diazepin-2-yl]quinoline-8-carbonitrile]"
6,96.4,"C[C@@H]1CN(c2ccc(C#N)c3ncccc23)C[C@@H]2CCN(Cc3ncc(N4CCNCC4)cn3)CCN21 [Example 13, 5-[(4R,10aS)-4-methyl-8-[(5-piperazin-1-ylpyrimidin-2-yl)methyl]-1,3,4,6,7,9,10,10a-octahydropyrazino[1,2-d][1,4]diazepin-2-yl]quinoline-8-carbonitrile]"

# Continued, compound first:
row,Compound,IC50 [nM]
1,"C[C@@H]1CN(c2ccc(C#N)c3ncccc23)C[C@@H]2CCN(c3cncc4c3CCNC4)CCN21 [Example 4, 5-[(4R,10aS)-4-methyl-8-(5,6,7,8-tetrahydro-2,7-naphthyridin-4-yl)-1,3,4,6,7,9,10,10a-octahydropyrazino[1,2-d][1,4]diazepin-2-yl]quinoline-8-carbonitrile]",< 31.8
2,"C[C@@H]1CN(c2ccc(C#N)c3ncccc23)C[C@@H]2CCN(Cc3cnc4c(c3)CNCC4)CCN21 [Example 10, 5-[(4R,10aS)-4-methyl-8-(5,6,7,8-tetrahydro-1,6-naphthyridin-3-ylmethyl)-1,3,4,6,7,9,10,10a-octahydropyrazino[1,2-d][1,4]diazepin-2-yl]quinoline-8-carbonitrile]",< 31.8
3,"C[C@@H]1CN(c2ccc(C#N)c3ncccc23)C[C@@H]2CCN(Cc3ccc(N4C[C@@H](N)[C@@H](F)C4)cn3)CCN21 [Example 20, 5-[(4R,10aS)-8-[[5-[(3R,4S)-3-amino-4-fluoro-pyrrolidin-1-yl]-2-pyridyl]methyl]-4-methyl-1,3,4,6,7,9,10,10a-octahydropyrazino[1,2-d][1,4]diazepin-2-yl]quinoline-8-carbonitrile]",34.9
4,"C[C@@H]1CN(c2ccc(C#N)c3ncccc23)C[C@@H]2CCN(Cc3cc4c(cn3)CNCC4)CCN21 [Example 8, 5-[(4R,10aS)-4-methyl-8-(5,6,7,8-tetrahydro-2,7-naphthyridin-3-ylmethyl)-1,3,4,6,7,9,10,10a-octahydropyrazino[1,2-d][1,4]diazepin-2-yl]quinoline-8-carbonitrile]",62.2
5,"CO[C@@H]1CN(c2cnc(CN3CC[C@H]4CN(c5ccc(C#N)n6nccc56)C[C@@H](C)N4CC3)c(F)c2)C[C@H]1N [Example 26, 4-[(4R,10aS)-8-[[5-[(3R,4R)-3-amino-4-methoxy-pyrrolidin-1-yl]-3-fluoro-2-pyridyl]methyl]-4-methyl-1,3,4,6,7,9,10,10a-octahydropyrazino[1,2-d][1,4]diazepin-2-yl]pyrazolo[1,5-a]pyridine-7-carbonitrile]",87.4
6,"C[C@@H]1CN(c2ccc(C#N)c3ncccc23)C[C@@H]2CCN(c3ccc4c(n3)CCNC4)CCN21 [Example 6, 5-[(4R,10aS)-4-methyl-8-(5,6,7,8-tetrahydro-1,6-naphthyridin-2-yl)-1,3,4,6,7,9,10,10a-octahydropyrazino[1,2-d][1,4]diazepin-2-yl]quinoline-8-carbonitrile]",101
7,"C[C@@H]1CN(c2ccc(C#N)c3ncccc23)C[C@@H]2CCN(c3ccc4c(n3)CNCC4)CCN21 [Example 5, 5-[(4R,10aS)-4-methyl-8-(5,6,7,8-tetrahydro-1,7-naphthyridin-2-yl)-1,3,4,6,7,9,10,10a-octahydropyrazino[1,2-d][1,4]diazepin-2-yl]quinoline-8-carbonitrile]",72.1
8,"C[C@@H]1CN(c2ccc(C#N)c3ncccc23)C[C@@H]2CCN(c3ccc([C@H]4CNCCO4)cc3)CCN21 [Example 3, 5-[(4R,10aS)-4-methyl-8-[4-[(2S)-morpholin-2-yl]phenyl]-1,3,4,6,7,9,10,10a-octahydropyrazino[1,2-d][1,4]diazepin-2-yl]quinoline-8-carbonitrile]",52
9,"C[C@@H]1CN(c2ccc(C#N)c3ncccc23)C[C@@H]2CCN(Cc3cc4c(cn3)CCNC4)CCN21 [Example 9, 5-[(4R,10aS)-4-methyl-8-(5,6,7,8-tetrahydro-2,6-naphthyridin-3-ylmethyl)-1,3,4,6,7,9,10,10a-octahydropyrazino[1,2-d][1,4]diazepin-2-yl]quinoline-8-carbonitrile]",35
10,"CO[C@@H]1CN(c2cnc(CN3CC[C@H]4CN(c5ccc(C#N)n6ncc(F)c56)C[C@@H](C)N4CC3)c(F)c2)C[C@H]1N [Example 27, 4-[(4R,10aS)-8-[[5-[(3R,4R)-3-amino-4-methoxy-pyrrolidin-1-yl]-3-fluoro-2-pyridyl]methyl]-4-methyl-1,3,4,6,7,9,10,10a-octahydropyrazino[1,2-d][1,4]diazepin-2-yl]-3-fluoro-pyrazolo[1,5-a]pyridine-7-carbonitrile]",65.4
11,"C[C@@H]1CN(c2ccc(C#N)c3ncccc23)C[C@@H]2CCN(Cc3ccc4c(c3)CNCC4)CCN21 [Example 12, 5-[(4R,10aS)-4-methyl-8-(1,2,3,4-tetrahydroisoquinolin-7-ylmethyl)-1,3,4,6,7,9,10,10a-octahydropyrazino[1,2-d][1,4]diazepin-2-yl]quinoline-8-carbonitrile]",43.8
12,"CO[C@@H]1CN(c2ccc(CN3CC[C@H]4CN(c5ccc(C#N)c6ncccc56)C[C@@H](C)N4CC3)nc2)C[C@H]1N [Example 22, 5-[(4R,10aS)-8-[[5-[(3R,4R)-3-amino-4-methoxy-pyrrolidin-1-yl]-2-pyridyl]methyl]-4-methyl-1,3,4,6,7,9,10,10a-octahydropyrazino[1,2-d][1,4]diazepin-2-yl]quinoline-8-carbonitrile]",62.8
